Results on 8 compounds are retold here after patent US8383581B2, “Short-chain peptides as parathyroid hormone (PTH) receptor agonist” (Cadila Healthcare Limited, priority 2009, dated 2013).

Where a SMILES comes first, the peptide text is derived from it. [ ]: non-standard residue; d: D form. ξ: configuration not given here. ξBip(2'-Et-4'-OMe) = CCc1cc(OC)ccc1-c1ccc(CC(N)C(=O)O)cc1; Arg(NO2) = N=C(NCCC[C@H](N)C(=O)O)N[N+](=O)[O-]; ξαMePhe(2,6-F2) = CC(N)(Cc1c(F)cccc1F)C(=O)O; ξαMe(hhPhe) = CC(N)(CCCc1ccccc1)C(=O)O; ξαMePhe(2-F) = CC(N)(Cc1ccccc1F)C(=O)O; hhPhe = N[C@@H](CCCc1ccccc1)C(=O)O; hArg = N=C(N)NCCCC[C@H](N)C(=O)O; hCit = NC(=O)NCCCC[C@H](N)C(=O)O; Cit = NC(=O)NCCC[C@H](N)C(=O)O; ξhhPhe = NC(CCCc1ccccc1)C(=O)O; ξαMeF = CC(N)(Cc1ccccc1)C(=O)O; NMeV = CN[C@H](C(=O)O)C(C)C; ξαMeNle = CCCCC(C)(N)C(=O)O; Nle = CCCC[C@H](N)C(=O)O; ξαMeP = CC1(C(=O)O)CCCN1; Ac5c = NC1(C(=O)O)CCCC1; Ac3c = NC1(C(=O)O)CC1; Aib = CC(C)(N)C(=O)O

The subject of data set [1] is ovariectomised (OVX) rats. Description: In vivo anti-osteoporosis activity testing in OVX rat model (serum calcium, phosphate, bone parameters). Further details: species or system Female Wistar Rats. Conditions: po. From the text: c) In Vivo Anti-Osteoporosis Activity Testing in OVX Rat Model: The ovariectomised (OVX) rats were used to study anti-osteoporosis activity of test compounds (short-chain peptides) in vivo. The OVX rats develop osteopenia due to ovarian hormone deficiency. Osteopenia can be detected as early as 14 days post OVX, increase for the next 100 days and then stabilised (Wronski T. J., et al., Calcif. Tissue Int., 43(3), 1988, 179-183). Detailed Study Protocol to Evaluate the Effects of Anabolic Therapy on Bone Markers and Histomorphometry in OVX Animals: 10 to 11 weeks old Female Wistar Rats (150-200 g) were used. The animals were kept in individually ventilated cages in a room with controlled temperature (23°±3° C.), lighting (12:12 h light-dark cycle) and relative humidity (55±10%). Animals had free access to standard rat chow and water. Protocol for use of animals for conducting this study has been reviewed and approved by Institutional Animal Ethics Committee (IAEC). The animals were marked with picric acid for identification and acclimatized to experimental room conditions for 2 days prior to initiation of the study. For the induction of osteoporosis, rats were bilaterally ovariectomised under anesthesia. For Ovariectomy, Incision was made on dorsa-lateral side near lumbar region of animal. After that, ovary was excised and the veins were tied with ligature before removing ovary to prevent blood loss. Then incision was sutured back with ligature. After Bilateral ovariectomy, animals were allowed to rest for 4 weeks. They were then divided into different groups (n=9) based on their body weight. The groups consisted of a no treatment control, PTH as standard and one or two groups of test compounds (short-chain peptides). The treatment was given for the duration of 6 weeks. At the last day of treatment animals were kept overnight in metabolic cages under fasting for the collection of Urine. Next day, blood was collected after 24 hours of last dosing and animals were sacrificed. Changes in biochemical parameters and bone turnover parameters (Increase in serum Calcium and decrease in Phosphate levels, Acid Phosphatase and TRAP) were evaluated in the urine and serum. After sacrificing, intact femur and tibial bones are removed and cleaned from adherent tissues, muscles and tendons; weighed and collected in formal saline (10% formaldehyde solution). Lumbar vertebra (L5) was excised, carefully cleaned and collected in formal saline. Femur, tibia and Lumbar vertebra-5 (L5) were later processed for histomorphometric evaluation (Zhang L., et al., Tohoku J Exp Med., 1998, 186(2), 131-41; Tanizawa T., et al., Toxicol Lett., 1998, 102, 399-403).

Data set [2] can be described thus: Stability of peptides in human plasma. In kind it is in vitro ADME. Conditions: human, plasma; for metabolised at 24 h, 2 μM: pH 7.8. An outline of the steps:
(§1)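 Peptides at 2 μM final incubated 0–24 h at 37 °C (50 mM triethanolamine-HCl, pH 7.8) in each matrix, matrix level set to degrade ~50% PTH(1-34) in 1 h; TFA-quenched, C18 HPLC at 206 nm with ESI-MS peak identification; percent degradation from peak areas at each time point.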

A short description of data set [3]: Stability of peptides in human liver microsomes. In kind it is in vitro ADME. Conditions: human, microsomes; for % degradation of peptides in 24 h when incubated with liver microsomes: 2 μM, pH 7.8. A digest of the protocol:
as §1
On the technique in general: Liver microsomes are vesicles of endoplasmic reticulum, rich in cytochrome P450 enzymes.

A short description of data set [4]: Stability of peptides in simulated gastric fluid (pH 1.5; HCl, NaCl and Pepsin). In kind it is in vitro ADME. The settings on record: pH 1.5; for % degradation of peptides in 24 h when incubated with simulated gastric fluid: 2 μM.
The nature of data set [5]: Stability of peptides in simulated intestinal fluid (pH 7.5). The data set is classed as in vitro ADME. Conditions: pH 7.5; for % degradation of peptides in 24 h when incubated with simulated intestinal fluid: 2 μM. A digest of the protocol: as §1

In the case of `CCCC[C@H](NC(=O)[C@H](CC(C)C)NC(=O)[C@H](CCC(N)=O)NC(=O)[C@@H](NC(=O)[C@H](CCC(=O)O)NC(=O)C(C)(C)NC(=O)[C@@H](NC(=O)C(C)(C)N)C(C)C)[C@@H](C)CC)C(=O)N[C@@H](Cc1c[nH]cn1)C(=O)N[C@@H](CCC(N)=O)C(=O)N[C@@H](CCCCNC(=N)N)C(=O)NC(C)(C)C(=O)NC(C)(C)C(=O)NC(Cc1ccc(-c2ccc(OC)cc2CC)cc1)C(=O)NC(CCCc1ccccc1)C(N)=O` (stereo partly shown) [Seq. ID. 742] (H-[Aib]V[Aib]EIQL[Nle]HQ[hArg][Aib][Aib][ξBip(2'-Et-4'-OMe)][ξhhPhe]-NH2), in data set [1] (0.1 mg/kg), the “% decrease in serum PO4 Levels (mg/dl) vs control” value (from here on “% decrease in serum PO4 Levels”) came to 92% and the “% increase in serum Ca^2+ Levels (mg/dl) vs control” value (“% increase in serum Ca^2+ Levels” for short) is reported as 89%.
Regarding `CCCC[C@H](NC(=O)C(C)(Cc1ccccc1F)NC(=O)[C@H](CCC(N)=O)NC(=O)[C@@H](NC(=O)[C@H](CCC(=O)O)NC(=O)C(C)(C)NC(=O)[C@@H](NC(=O)C1(N)CCCC1)C(C)C)[C@@H](C)CC)C(=O)N[C@@H](Cc1c[nH]cn1)C(=O)N[C@@H](CCC(N)=O)C(=O)N[C@@H](CCCCNC(=N)N)C(=O)NC(C)(C)C(=O)NC(C)(Cc1c(F)cccc1F)C(=O)NC(C)(Cc1ccccc1F)C(N)=O` (stereo partly shown) [Seq. ID. 210] (H-[Ac5c]V[Aib]EIQ[ξαMePhe(2-F)][Nle]HQ[hArg][Aib][ξαMePhe(2,6-F2)][ξαMePhe(2-F)]-NH2), in data set [1] (1 mg/kg), the “% decrease in serum PO4 Levels” value is reported as 99% and the “% increase in serum Ca^2+ Levels” value is recorded as 96%.
For the compound `CCCC[C@H](NC(=O)C(C)(Cc1c(F)cccc1F)NC(=O)[C@H](CCC(N)=O)NC(=O)[C@@H](NC(=O)[C@H](CCC(=O)O)NC(=O)C1(NC(=O)[C@@H](NC(=O)C2(N)CCCC2)C(C)C)CCCC1)[C@@H](C)CC)C(=O)N[C@@H](Cc1c[nH]cn1)C(=O)N[C@@H](CCC(N)=O)C(=O)N[C@@H](CCCCNC(=N)N)C(=O)NC(C)(C)C(=O)N[C@@H](CCCNC(N)=O)C(=O)NC(C)(Cc1c(F)cccc1F)C(N)=O` (stereo partly shown) [Seq. ID. 158] (H-[Ac5c]V[Ac5c]EIQ[ξαMePhe(2,6-F2)][Nle]HQ[hArg][Aib][Cit][ξαMePhe(2,6-F2)]-NH2), in data set [1] (0.1 mg/kg), the “% decrease in serum PO4 Levels” value came to 82% and the “% increase in serum Ca^2+ Levels” value is 100%.
With `CCCC[C@H](NC(=O)C(C)(Cc1c(F)cccc1F)NC(=O)[C@H](CCC(N)=O)NC(=O)[C@@H](NC(=O)[C@H](CCC(=O)O)NC(=O)C(C)(C)NC(=O)[C@@H](NC(=O)C1(N)CC1)C(C)C)[C@@H](C)CC)C(=O)N[C@@H](Cc1c[nH]cn1)C(=O)N[C@@H](CCC(N)=O)C(=O)N[C@@H](CCCCNC(=N)N)C(=O)N[C@@H](C)C(=O)N[C@@H](CCCCN)C(=O)NC(C)(Cc1ccccc1)C(N)=O` (stereo partly shown) [Seq. ID. 39] (H-[Ac3c]V[Aib]EIQ[ξαMePhe(2,6-F2)][Nle]HQ[hArg]AK[ξαMeF]-NH2), in data set [1] (0.03 mg/kg), the “% decrease in serum PO4 Levels” value came to 66% and the “% increase in serum Ca^2+ Levels” value is on record as 88%.
`CCCCC(C)(NC(=O)[C@H](CC(C)C)NC(=O)[C@H](CCC(N)=O)NC(=O)[C@@H](NC(=O)[C@H](CCC(=O)O)NC(=O)C(C)(C)NC(=O)[C@@H](NC(=O)C1(NC(=O)[C@@H](NC)C(C)C)CCCC1)C(C)C)[C@@H](C)CC)C(=O)N[C@@H](Cc1c[nH]cn1)C(=O)N[C@@H](CCC(N)=O)C(=O)N[C@@H](CCCCNC(=N)N)C(=O)N[C@@H](C)C(=O)N[C@@H](CCCCNC(=N)N)C(=O)NC(Cc1ccc(-c2ccc(OC)cc2CC)cc1)C(=O)NC(C)(CCCc1ccccc1)C(N)=O` (stereo partly shown) [Seq. ID. 929] (H-[NMeV][Ac5c]V[Aib]EIQL[ξαMeNle]HQ[hArg]A[hArg][ξBip(2'-Et-4'-OMe)][ξαMe(hhPhe)]-NH2): in data set [1] (2 mg/kg), the “% decrease in serum PO4 Levels” value amounted to 90% and the “% increase in serum Ca^2+ Levels” value is listed as 121%.
Turning to `CCCC[C@H](NC(=O)[C@H](CC(C)C)NC(=O)[C@H](CCC(N)=O)NC(=O)[C@@H](NC(=O)[C@H](CCC(=O)O)NC(=O)C1(NC(=O)[C@@H](NC(=O)C2(N)CC2)C(C)C)CC1)[C@@H](C)CC)C(=O)N[C@@H](Cc1c[nH]cn1)C(=O)N[C@@H](CCC(N)=O)C(=O)N[C@@H](CCCCNC(=N)N)C(=O)N[C@@H](C)C(=O)N[C@@H](CCCNC(=N)N[N+](=O)[O-])C(=O)NC(Cc1ccc(-c2ccc(OC)cc2CC)cc1)C(=O)N[C@@H](CCCc1ccccc1)C(N)=O` (stereo partly shown) [Seq. ID. 690] (H-[Ac3c]V[Ac3c]EIQL[Nle]HQ[hArg]A[Arg(NO2)][ξBip(2'-Et-4'-OMe)][hhPhe]-NH2), in data set [2], the half-life – broadly, how long it takes for the measured level to halve – was 480 min and the metabolised at 24 h, 2 μM was 70%. Besides, in data set [3], the half-life turned out to be 60 min and the “% degradation of peptides in 24 h when incubated with liver microsomes” value (shortened to “% degradation … with liver microsomes”) was determined as 78%. In data set [4], the “% degradation of peptides in 24 h when incubated with simulated gastric fluid” value (“% degradation … with simulated gastric fluid” for short) is recorded as 12%. In addition, in data set [4] (simulated gi fluid), the “half-life (t1/2) in simulated gastric fluid” value was “(8) h”. The “half-life (t1/2) in simulated intestinal fluid” value in data set [5] (simulated gi fluid) is recorded as “(6) h”. Also, in data set [5], the “% degradation of peptides in 24 h when incubated with simulated intestinal fluid” value (shortened to “% degradation … with simulated intestinal fluid”) is on record as 42%.
In data set [2], `CCCC[C@H](NC(=O)C(C)(Cc1c(F)cccc1F)NC(=O)[C@H](CCC(N)=O)NC(=O)[C@@H](NC(=O)[C@H](CCC(=O)O)NC(=O)C(C)(C)NC(=O)[C@@H](NC(=O)C(C)(C)N)C(C)C)[C@@H](C)CC)C(=O)N[C@@H](Cc1c[nH]cn1)C(=O)N[C@@H](CCC(N)=O)C(=O)N[C@@H](CCCCNC(N)=O)C(=O)N[C@@H](C)C(=O)N[C@@H](CCCNC(N)=O)C(=O)NC(Cc1ccc(-c2ccc(OC)cc2CC)cc1)C(=O)N[C@@H](CCCc1ccccc1)C(N)=O` (stereo partly shown) [Seq. ID. 860] (H-[Aib]V[Aib]EIQ[ξαMePhe(2,6-F2)][Nle]HQ[hCit]A[Cit][ξBip(2'-Et-4'-OMe)][hhPhe]-NH2) registered a half-life of 480 min and a metabolised at 24 h, 2 μM of 77%. Moreover, in data set [3], the half-life worked out at 60 min and the “% degradation … with liver microsomes” value was 81%. For the same compound, the “% degradation … with simulated gastric fluid” value in data set [4] was 14%. Besides, the “half-life (t1/2) in simulated gastric fluid” value in data set [4] (simulated gi fluid) is recorded as “(8) h”. Also, in data set [5] (simulated gi fluid), the “half-life (t1/2) in simulated intestinal fluid” value is “(6) h”. Also, in data set [5], the “% degradation … with simulated intestinal fluid” value was 45%.
For `CCCC[C@H](NC(=O)C(C)(Cc1c(F)cccc1F)NC(=O)[C@H](CCC(N)=O)NC(=O)[C@@H](NC(=O)[C@H](CCC(=O)O)NC(=O)C(C)(C)NC(=O)[C@@H](NC(=O)C1(N)CC1)C(C)C)[C@@H](C)CC)C(=O)N[C@@H](Cc1c[nH]cn1)C(=O)N[C@@H](CCC(N)=O)C(=O)N[C@@H](CCCCNC(=N)N)C(=O)N1CCCC1(C)C(=O)N[C@@H](CCCCN)C(=O)NC(C)(Cc1ccccc1F)C(N)=O` (stereo partly shown) [Seq. ID. 75] (H-[Ac3c]V[Aib]EIQ[ξαMePhe(2,6-F2)][Nle]HQ[hArg][ξαMeP]K[ξαMePhe(2-F)]-NH2), the “half-life (t1/2) in human plasma” value in data set [2] is reported as “(9) h”. This compound also yielded a metabolised at 24 h, 2 μM in data set [2] of 78%. In addition, the half-life in data set [3], in data set [4] (simulated gi fluid) and in data set [5] (simulated gi fluid) was 30 min in each case. For the same compound, the “% degradation … with liver microsomes” value in data set [3] amounted to 100%. In addition, the “% degradation … with simulated gastric fluid” value in data set [4] is reported as 100%. In data set [5], the “% degradation … with simulated intestinal fluid” value is listed as 100%.
